Test results reported in patent US20210115104A1, “AMYLIN ANALOGUES” (Zealand Pharma A/S, priority 2015, published 2021).
*1 amine or outer side, *2 acyl side, *3 side chain or, on linkers, in order; H or OH if unused. Where a SMILES comes first, the peptide text is derived from it. Bridges are numbered along the chain shown (N, C = ends). [ ]: non-standard residue; d: D form. The star is where a group is joined. C20 diacid = O=C(O)CCCCCCCCCCCCCCCCCCC(=O)*; γGlu = O=C(O)[C@H](CCC(=O)[*:2])N[*:1]; Hyp = O=C(O)[C@@H]1C[C@@H](O)CN1; NMeI = CC[C@H](C)[C@H](NC)C(=O)O; Sar = CNCC(=O)O

Key:
[1] = biological target: T1, human calcitonin receptor (hCTR2) (Homo sapiens, UniProt P30988); test: hCTR2 cAMP assay (AlphaScreen) in COS7 cells; type: cell-based; conditions: cAMP induction, COS7 cells expressing hCTR2; Table 1; read-out: hCTR2 EC50
T1 construct: expressed in transfected cells
T1 sequence (P30988 25-474): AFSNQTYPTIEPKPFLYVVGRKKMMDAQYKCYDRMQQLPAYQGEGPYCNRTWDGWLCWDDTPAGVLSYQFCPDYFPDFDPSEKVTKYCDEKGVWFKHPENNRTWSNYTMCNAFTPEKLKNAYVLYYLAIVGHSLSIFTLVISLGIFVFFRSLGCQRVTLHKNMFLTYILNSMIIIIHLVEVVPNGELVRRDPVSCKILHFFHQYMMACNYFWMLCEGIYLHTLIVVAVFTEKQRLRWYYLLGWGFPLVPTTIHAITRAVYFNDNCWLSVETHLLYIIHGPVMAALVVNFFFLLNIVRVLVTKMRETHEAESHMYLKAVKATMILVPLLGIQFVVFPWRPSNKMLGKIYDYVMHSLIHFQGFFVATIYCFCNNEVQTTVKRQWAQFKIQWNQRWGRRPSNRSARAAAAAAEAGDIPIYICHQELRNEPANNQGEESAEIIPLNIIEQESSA
Summary of the method: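 Stable hCTR2 clone in RAMP-naïve COS7 cells stimulated 15 min at 37 °C with increasing peptide concentrations in Tyrode buffer pH 7.4 containing IBMX and 0.1% casein. cAMP in lysates measured by AlphaScreen; EC50 from 4-parameter logistic fit.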

[2] = biological target: T2, human amylin receptor 3 (hAMYR3), hCTR2 co-expressed with hRAMP3 (Homo sapiens, UniProt O60896+P30988); test: hAMYR3 cAMP assay (AlphaScreen) in COS7 cells; type: cell-based; conditions: cAMP induction, COS7 cells expressing hAMYR3; Table 1; read-out: hAMYR3 EC50
T2 construct: expressed in transfected cells
T2 sequence (P30988 25-474): T1 sequence (P30988 25-474)
T2 sequence (O60896 24-148 partner): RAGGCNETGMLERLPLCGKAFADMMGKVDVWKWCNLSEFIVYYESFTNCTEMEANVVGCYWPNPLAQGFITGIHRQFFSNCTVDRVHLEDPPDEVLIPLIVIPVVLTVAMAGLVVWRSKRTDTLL
From the text: The cell line COS7, originating from African Green Monkey kidney fibroblast cells, was used for establishment of the stable cell lines described below. The COS7 cellular background was used due to it being RAMP naïve, and as such it provides the best available system for testing of the monomeric hCTR and different heterodimeric amylin receptor subtypes functionally generated by introduction of the individual RAMPs.
A cell line expressing the human amylin receptor 3 (hAMYR3) was generated in the COS7 cellular background as stable clones. In brief, hCTR2 (GI:4502547) and hRAMP3 (GI:118572586) were amplified by PCR using primers encoding terminal restriction sites for subcloning. The 5′-end primers additionally encoded a near Kozak consensus sequence to ensure efficient translation. The fidelity of the DNA encoding the receptor was confirmed by DNA sequencing. The PCR products encoding the receptor were subcloned into a proprietary tri-cistronic mammalian expression vector with RAMP3, hCTR2 and neomycin (G418) resistance marker. The mammalian expression vector encoding the receptor was transfected into COS7 cells by a standard liposome transfection method. 48 hours post-transfection, cells were seeded for limited dilution cloning and selected with 1 mg/ml G418 in the culture medium. After 3 weeks, surviving colonies of hAMY3R-expressing cells were picked, propagated and tested in the amylin efficacy assay as described in Example 3 below. The functional generation of the amylin receptor phenotype was verified in the efficacy assay by a left-shifted efficacy response to amylin relative to monomeric calcitonin receptor, and one hAMYR3-expressing clone was chosen for compound profiling.
In vitro activity of test peptides at the hCTR2 and hAMYR3 receptors was assessed by measuring the induction of cAMP following stimulation of the receptor using the AlphaScreen® cAMP Assay kit from Perkin-Elmer.
Briefly, COS7 cells expressing hCTR2 (see Example 2, above) were seeded at 30-40,000 cells per well in 96-well microtiter plates coated with 0.01% poly-L-lysine, and grown for 1 day in culture in 100 μl growth medium [DMEM, 10% FCS, Penicillin (100 IU/ml), Streptomycin (100 μg/ml)]. On the day of analysis, growth medium was removed and the cells were washed once with 200 μl Tyrode buffer [Tyrode's Salts (9.6 g/I), 10 mM HEPES, pH 7.4]. Cells were incubated in 100 μl Tyrode buffer containing increasing concentrations of test peptides, 100 µM IBMX and 0.1% casein for 15 min at 37° C. The reaction was stopped by carefully decanting off the compound/buffer medium and replacing it with lysis/detection buffer (80 μl 0.1% w/v BSA, 5 mM HEPES, 0.3% v/v Tween-20 in deionized water). After incubation at room temperature for 10 min., the cAMP content of the resulting cell lysate was estimated according to the AlphaScreen® cAMP Assay manufacturer's instructions. EC50 values were estimated by computer-aided curve fitting using the 4-parameter logistic (4PL) non-linear model.

[3] = Assessment of physical stability (Thioflavin T fibrillation); type: physicochemical; design: key: FND = fibrillation not detected; FD = fibrillation detected; conditions: 1 mg/ml, 40° C., ThT
Summary of the method: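 1 mg/ml peptide with 40 μM ThT in 50 mM phosphate pH 7.0, 50 mM histidine pH 7.0 or 50 mM acetate pH 4.0, in triplicate. Fluorescence read every 10 min after 300 s agitation over 96 h at 40 °C. Lag-time (h) is the intersection of linear fits to stable and growth phases.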

[4] = Assessment of chemical stability (RP-HPLC normalized purity); type: physicochemical; conditions: 7 days, 40° C., Table 1
Summary of the method: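 Peptides at 0.2 mg/ml in water adjusted to pH 4, 6, 7.5 or 9, incubated at 40° C for 7 days. Main-peak area-% by RP-HPLC (C8 ammonium formate or C18 TFA gradient, UV 220 nm), normalized to T=0 as 100.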

Row | Compound | EC50 [1] | EC50 [2] | Fibrillation pH 4.0 (Ac) ([3]; 50 mM acetate buffer pH 4.0, 96 hours) | Fibrillation pH 7.0 (His) ([3]; 50 mM histidine buffer pH 7.0, 96 hours) | Fibrillation pH 7.0 (Phos.) ([3]; 50 mM phosphate buffer pH 7.0, 96 hours) | Normalized purity after 7 days, 40° C., pH 4 ([4]; pH 4, 0.2 mg/ml) | Normalized purity after 7 days, 40° C., pH 6 ([4]; pH 6, 0.2 mg/ml) | Normalized purity after 7 days, 40° C., pH 7.5 ([4]; pH 7.5, 0.2 mg/ml) | Normalized purity after 7 days, 40° C., pH 9 ([4]; pH 9, 0.2 mg/ml)
1 | CC[C@H](C)[C@@H](C(=O)N[C@@H](CC(C)C)C(=O)N[C@@H](CO)C(=O)N[C@@H](CO)C(=O)N[C@H](C(=O)N[C@@H](CCC(=O)O)C(=O)N[C@H](C(=O)NCC(=O)N[C@@H](CO)C(=O)N[C@@H](CC(N)=O)C(=O)N[C@H](C(=O)N1C[C@H](O)C[C@H]1C(N)=O)[C@@H](C)O)C(C)C)[C@@H](C)O)N(C)C(=O)[C@H](C)NC(=O)CN(C)C(=O)[C@H](Cc1ccccc1)NC(=O)[C@H](CO)NC(=O)[C@H](CO)NC(=O)[C@H](CCCNC(=N)N)NC(=O)[C@H](CCC(N)=O)NC(=O)[C@H](CC(C)C)NC(=O)[C@H](Cc1ccccc1)NC(=O)[C@H](CC(=O)O)NC(=O)[C@H](C)NC(=O)[C@H](CC(C)C)NC(=O)[C@H](CCCNC(=N)N)NC(=O)[C@H](CCC(=O)O)NC(=O)[C@@H](NC(=O)[C@H](C)NC(=O)[C@@H]1CSSC[C@H](NC(=O)[C@H](CCCNC(=N)N)NC(=O)CC[C@H](NC(=O)CCCCCCCCCCCCCCCCCCC(=O)O)C(=O)O)C(=O)N[C@@H](CC(N)=O)C(=O)N[C@@H]([C@@H](C)O)C(=O)N[C@@H](C)C(=O)N[C@@H]([C@@H](C)O)C(=O)N1)[C@@H](C)O [Compound 68, [19CD]-isoGlu-R-C( )-NTAT-C( )-ATERLADFLQRSSF-Gly(Me)-A-Ile(Me)-LSSTEVGSNT-Hyp-NH2] ({C20 diacid-γGlu}-RCNTATCATERLADFLQRSSF[Sar]A[NMeI]LSSTEVGSNT[Hyp]-NH2; disulfide 2-7) | 0.32 nM | 0.29 nM | – | – | – | – | – | – | –
2 | CC[C@H](C)[C@@H](C(=O)N[C@@H](CC(C)C)C(=O)N[C@@H](CO)C(=O)N[C@@H](CO)C(=O)N[C@H](C(=O)N[C@@H](CCC(=O)O)C(=O)N[C@H](C(=O)NCC(=O)N[C@@H](CO)C(=O)N[C@@H](CO)C(=O)N[C@H](C(=O)N1CCC[C@H]1C(N)=O)[C@@H](C)O)C(C)C)[C@@H](C)O)N(C)C(=O)[C@H](C)NC(=O)CN(C)C(=O)[C@H](Cc1ccccc1)NC(=O)[C@H](CO)NC(=O)[C@H](CO)NC(=O)[C@H](CCCNC(=N)N)NC(=O)[C@H](Cc1c[nH]cn1)NC(=O)[C@H](CC(C)C)NC(=O)[C@H](Cc1ccccc1)NC(=O)[C@H](Cc1c[nH]cn1)NC(=O)[C@H](C)NC(=O)[C@H](CC(C)C)NC(=O)[C@H](CCCNC(=N)N)NC(=O)[C@H](CCC(=O)O)NC(=O)[C@@H](NC(=O)[C@H](C)NC(=O)[C@@H]1CSSC[C@H](NC(=O)[C@H](CCCNC(=N)N)NC(=O)CC[C@H](NC(=O)CCCCCCCCCCCCCCCCCCC(=O)O)C(=O)O)C(=O)NCC(=O)N[C@@H]([C@@H](C)O)C(=O)N[C@@H](C)C(=O)N[C@@H]([C@@H](C)O)C(=O)N1)[C@@H](C)O [Compound 37, [19CD]-isoGlu-R-C( )-GTAT-C( )-ATERLAHFLHRSSF-Gly(Me)-A-Ile(Me)-LSSTEVGSSTP-NH2] ({C20 diacid-γGlu}-RCGTATCATERLAHFLHRSSF[Sar]A[NMeI]LSSTEVGSSTP-NH2; disulfide 2-7) | 0.04 nM | 0.07 nM | – | – | – | – | – | – | –
3 | CC[C@H](C)[C@@H](C(=O)N[C@@H](CC(C)C)C(=O)N[C@@H](CO)C(=O)N[C@@H](CO)C(=O)N[C@H](C(=O)N[C@@H](CCC(=O)O)C(=O)N[C@H](C(=O)NCC(=O)N[C@@H](CO)C(=O)N[C@@H](CC(N)=O)C(=O)N[C@H](C(=O)N1CCC[C@H]1C(N)=O)[C@@H](C)O)C(C)C)[C@@H](C)O)N(C)C(=O)[C@H](C)NC(=O)CN(C)C(=O)[C@H](Cc1ccccc1)NC(=O)[C@H](CO)NC(=O)[C@H](CO)NC(=O)[C@H](CCCNC(=N)N)NC(=O)[C@H](CCC(N)=O)NC(=O)[C@H](CC(C)C)NC(=O)[C@H](Cc1ccccc1)NC(=O)[C@H](CC(=O)O)NC(=O)[C@H](C)NC(=O)[C@H](CC(C)C)NC(=O)[C@H](CCCNC(=N)N)NC(=O)[C@H](CCC(=O)O)NC(=O)[C@@H](NC(=O)[C@H](C)NC(=O)[C@@H]1CSSC[C@H](NC(=O)[C@H](CCCNC(=N)N)NC(=O)CC[C@H](NC(=O)CCCCCCCCCCCCCCCCCCC(=O)O)C(=O)O)C(=O)N[C@@H](CC(N)=O)C(=O)N[C@@H]([C@@H](C)O)C(=O)N[C@@H](C)C(=O)N[C@@H]([C@@H](C)O)C(=O)N1)[C@@H](C)O [Compound 66, [19CD]-isoGlu-R-C( )-NTAT-C( )-ATERLADFLQRSSF-Gly(Me)-A-Ile(Me)-LSSTEVGSNTP-NH2] ({C20 diacid-γGlu}-RCNTATCATERLADFLQRSSF[Sar]A[NMeI]LSSTEVGSNTP-NH2; disulfide 2-7) | 0.19 nM | 0.3 nM | – | – | – | – | – | – | –
4 | CC[C@H](C)[C@@H](C(=O)N[C@@H](CC(C)C)C(=O)N[C@@H](CO)C(=O)N[C@@H](CO)C(=O)N[C@H](C(=O)N[C@@H](CCC(=O)O)C(=O)N[C@H](C(=O)NCC(=O)N[C@@H](CO)C(=O)N[C@H](C(=O)N[C@H](C(=O)N1C[C@H](O)C[C@H]1C(N)=O)[C@@H](C)O)[C@@H](C)O)C(C)C)[C@@H](C)O)N(C)C(=O)[C@H](C)NC(=O)CN(C)C(=O)[C@H](Cc1ccccc1)NC(=O)[C@H](CO)NC(=O)[C@H](CO)NC(=O)[C@H](CCCNC(=N)N)NC(=O)[C@@H](NC(=O)[C@H](CC(C)C)NC(=O)[C@H](Cc1ccccc1)NC(=O)[C@H](Cc1c[nH]cn1)NC(=O)[C@H](C)NC(=O)[C@H](CC(C)C)NC(=O)[C@H](CCCNC(=N)N)NC(=O)[C@H](CCC(=O)O)NC(=O)[C@@H](NC(=O)[C@H](C)NC(=O)[C@@H]1CSSC[C@H](NC(=O)[C@H](CCCNC(=N)N)NC(=O)CC[C@H](NC(=O)CCCCCCCCCCCCCCCCCCC(=O)O)C(=O)O)C(=O)NCC(=O)N[C@@H]([C@@H](C)O)C(=O)N[C@@H](C)C(=O)N[C@@H]([C@@H](C)O)C(=O)N1)[C@@H](C)O)[C@@H](C)O [Compound 48, [19CD]-isoGlu-R-C( )-GTAT-C( )-ATERLAHFLTRSSF-Gly(Me)-A-Ile(Me)-LSSTEVGSTT-Hyp-NH2] ({C20 diacid-γGlu}-RCGTATCATERLAHFLTRSSF[Sar]A[NMeI]LSSTEVGSTT[Hyp]-NH2; disulfide 2-7) | – | 0.26 nM | FND | FND | FND | A (A = >90%) | A (A = >90%) | A (A = >90%) | A (A = >90%)
